Experimental data published in patent publication US7157487B2, “Vla-4 inhibitors” (Daiichi Pharmaceutical Co., Ltd., priority 2000, dated 2007).
pKi: −log10 of the molar value.

What was measured:
[1] = Pharmacokinetics and oral bioavailability in rats; assay type: in vivo; conditions: Rat, oral, plasma; for AUC: LC/MS/MS; for bioavailability: read-out: F (%) oral bioavailability; for clearance: read-out: CLtot (mL/min/kg) apparent plasma clearance
Description: (§1) The pharmacokinetic parameter of the test compound orally administered to rats or dogs are described below.

[2] = Pharmacokinetics and oral bioavailability in dogs; assay type: in vivo; conditions: 2 /kg, Dog, oral, Dose/kg 2.0, plasma; for AUC: LC/MS/MS; for bioavailability: read-out: F (%) oral bioavailability; for clearance: read-out: CLtot (mL/min/kg) apparent plasma clearance
Description: as §1

[3] = target: T1, integrins haα4 and β1 (VLA-4) expressed on CHO cells (Homo sapiens, UniProt P05556+P13612); experiment: In vitro Evaluation Test (1): binding of Eu3+-hVCAM-1 D1D7-IgG to CHO cells expressing integrins α4 and β1; conditions: inhibition of Eu3+-hVCAM-1 D1D7-IgG binding to CHO cells expressing α4β1; Ki calculated from IC50
T1 construct: expressed in transfected cells; host or cells: CHO cells
Method in brief: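 CHO cells transduced with human α4 and β1 were grown for 2 days. They were incubated 1 h at room temperature with Eu3+-hVCAM-1 D1D7-IgG (diluted to 2 nM before addition) and compound, with or without 6% HSA, in HEPES pH 7.5 containing Ca2+, Mg2+ and 4 mM Mn2+. Time-resolved fluorescence gave IC50; Ki used a Scatchard-derived Kd (0.06–20 nM).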

VLA-4 expressed cells = conditions: literature report; cited from earlier work
[4] = Evaluation of oral bioavailability by mouse bioassay; assay type: in vivo; conditions: 10 mg/kg oral, female Balb/C mice, serum 15 minutes after administration, read-out: Blood level
Protocol: A test compound was suspended or dissolved in a proper administration medium to give a concentration of 1 mg/ml. To 7 to 9 week old female Balb/C mice, 10 mg/kg of the resulting suspension or solution was orally administered. Fifteen minutes after the administration, blood was collected from the postcava under anesthesia with ether and the serum was separated from it. The concentration of each test compound was determined by estimating the serum level from a calibration curve obtained with VCAM-1/VLA-4 inhibitory activity as an index or measuring the concentration by using LC/MS/MS.

VLA-4 = VLA-4 (Homo sapiens, UniProt P05556+P13612); conditions: in vitro, literature report; cited from earlier work
[5] = tested on: cardiac transplantation of rabbits; conditions: literature report; cited from earlier work

T1 sequence (P13612 34-1032): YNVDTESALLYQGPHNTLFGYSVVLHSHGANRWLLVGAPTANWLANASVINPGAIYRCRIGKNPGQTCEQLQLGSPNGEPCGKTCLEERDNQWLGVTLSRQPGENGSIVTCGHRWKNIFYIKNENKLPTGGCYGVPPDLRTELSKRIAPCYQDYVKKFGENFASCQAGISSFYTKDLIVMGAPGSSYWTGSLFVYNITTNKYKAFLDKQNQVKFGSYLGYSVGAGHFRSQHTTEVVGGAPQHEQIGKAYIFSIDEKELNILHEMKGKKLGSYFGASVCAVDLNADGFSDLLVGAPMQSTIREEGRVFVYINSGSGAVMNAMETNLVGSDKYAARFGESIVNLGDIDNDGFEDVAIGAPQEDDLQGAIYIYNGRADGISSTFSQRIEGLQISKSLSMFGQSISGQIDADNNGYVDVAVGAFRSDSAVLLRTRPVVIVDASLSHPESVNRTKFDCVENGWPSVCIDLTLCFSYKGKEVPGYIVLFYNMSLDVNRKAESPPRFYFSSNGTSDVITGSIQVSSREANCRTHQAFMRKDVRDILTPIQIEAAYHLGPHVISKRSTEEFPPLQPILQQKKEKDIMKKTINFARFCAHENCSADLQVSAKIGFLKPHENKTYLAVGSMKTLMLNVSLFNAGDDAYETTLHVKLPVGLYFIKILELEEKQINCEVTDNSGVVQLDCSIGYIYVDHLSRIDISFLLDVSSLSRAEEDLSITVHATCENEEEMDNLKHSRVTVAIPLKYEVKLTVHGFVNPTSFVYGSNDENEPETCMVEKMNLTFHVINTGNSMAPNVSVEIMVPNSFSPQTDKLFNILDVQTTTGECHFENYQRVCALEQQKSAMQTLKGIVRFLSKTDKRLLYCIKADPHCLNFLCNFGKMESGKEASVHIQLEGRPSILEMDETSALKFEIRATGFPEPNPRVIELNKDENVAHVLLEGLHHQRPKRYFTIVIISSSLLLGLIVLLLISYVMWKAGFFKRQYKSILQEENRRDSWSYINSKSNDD
T1 sequence (P05556 21-798): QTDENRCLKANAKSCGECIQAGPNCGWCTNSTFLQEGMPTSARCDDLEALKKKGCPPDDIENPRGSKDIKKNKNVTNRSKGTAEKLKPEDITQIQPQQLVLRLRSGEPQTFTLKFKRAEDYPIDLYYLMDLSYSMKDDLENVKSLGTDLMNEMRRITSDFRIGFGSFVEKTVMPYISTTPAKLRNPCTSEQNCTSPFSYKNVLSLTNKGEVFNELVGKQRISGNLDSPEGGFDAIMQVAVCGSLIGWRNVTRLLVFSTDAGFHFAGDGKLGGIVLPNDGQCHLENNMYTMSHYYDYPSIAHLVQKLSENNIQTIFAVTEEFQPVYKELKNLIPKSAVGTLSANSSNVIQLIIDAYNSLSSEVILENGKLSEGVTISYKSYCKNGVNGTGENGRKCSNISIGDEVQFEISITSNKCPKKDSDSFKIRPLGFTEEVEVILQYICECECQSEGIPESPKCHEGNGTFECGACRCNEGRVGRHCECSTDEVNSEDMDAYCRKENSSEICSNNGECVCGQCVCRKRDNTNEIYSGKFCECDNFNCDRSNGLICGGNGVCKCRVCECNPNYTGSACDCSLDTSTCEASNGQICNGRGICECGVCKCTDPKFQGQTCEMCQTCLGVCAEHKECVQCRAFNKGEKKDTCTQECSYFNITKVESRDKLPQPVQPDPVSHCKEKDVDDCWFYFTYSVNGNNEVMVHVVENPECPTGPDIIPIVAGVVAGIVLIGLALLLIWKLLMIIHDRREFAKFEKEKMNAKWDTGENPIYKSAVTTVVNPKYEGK
VLA-4, sequence (P13612 34-1032): as the sequence (P13612 34-1032) above
VLA-4, sequence (P05556 21-798): as the sequence (P05556 21-798) above

Row | pKi [3] | concentration at 15 min [4] | Compound | also measured
1 | – | – | CO[C@H]1C[C@@H](COC2CCC(C(=O)O)CC2)N(C(=O)Cc2ccc3nc(Nc4ccccc4C)oc3c2)C1 (single isomer, unassigned) [20 (Isomer A)] | AUC ([1]; 2 /kg, Dose/kg 2.0): 152 ng·h/mL; bioavailability ([1]; 2 /kg, Dose/kg 2.0): 35%; clearance ([1]; 2 /kg, Dose/kg 2.0): 73 mL/min/kg; AUC [2]: 776 ng·h/mL; bioavailability [2]: 44%; clearance [2]: 19.1 mL/min/kg
2 | – | – | CQIDSPC | inhibition of adhesion of VLA-4 expressed cells to purified VCAM-1 (VLA-4 expressed cells): succeeded in inhibiting adhesion
3 | 8.29 | 2930 ng/mL | C=CCO[C@H]1C[C@@H](CO[C@H]2CC[C@H](C(=O)O)CC2)N(C(=O)Cc2cc(Cl)c(NC(=O)c3cn(C)c4ccccc34)cc2F)C1 [Example 117, trans-4-((4S)-Allyloxy-1-((5-chloro-2-fluoro-4-(1-methyl-3-indolylcarbonylamino)phenyl)acetyl)-(2S)-pyrrolidinylmethoxy)cyclohexanecarboxylic acid] | –
4 | – | – | phenylacetic acid-Leu-Asp-Phe-d-Pro-amide [synthetic CS-1 tetrapeptide] | inhibition of leukocyte adhesion mediated by VLA-4 (VLA-4): in vitro inhibition; advance of coronary arterial diseases [5]: amelioration of advance of coronary arterial diseases
5 | 8.30 | 2730 ng/mL | CO[C@H]1C[C@@H](CO[C@H]2CC[C@H](C(=O)O)CC2)N(C(=O)Cc2cc(Cl)c(NC(=O)c3nsc4ccccc34)cc2F)C1 [Example 171, trans-4-(1-(5-Chloro-2-fluoro-4-((3-benzo(d)isothiazolylcarbonyl)amino)phenylacetyl)-(4S)-methoxy-(2S)-pyrrolidinylmethoxy)cyclohexanecarboxylic acid] | –
6 | 8.36 | 1880 ng/mL | Cn1cc(C(=O)Nc2cc(Cl)c(CC(=O)N3C[C@@H](F)C[C@H]3CO[C@H]3CC[C@H](C(=O)O)CC3)cc2Cl)c2ccccc21 [Example 72, trans-4-(1-(2,5-Dichloro-4-((1-methyl-1H-3-indolylcarbonyl)amino)phenylacetyl)-(4S)-fluoro-(2S)-pyrrolidinylmethoxy)cyclohexanecarboxylic acid] | –
7 | 7.74 | 7340 ng/mL | Cn1cc(C(=O)Nc2cc(F)c(CC(=O)N3C[C@@H](F)C[C@H]3CO[C@H]3CC[C@H](C(=O)O)CC3)cc2F)c2ccccc21 [Example 71, trans-4-(1-(2,5-Difluoro-4-((1-methyl-1H-3-indolylcarbonyl)amino)phenylacetyl)-(4S)-fluoro-(2S)-pyrrolidinylmethoxy)cyclohexanecarboxylic acid] | –
8 | 7.85 | 2180 ng/mL | O=C(O)C1CCC(OC[C@@H]2C[C@H](F)CN2C(=O)Cc2ccc3nc(Nc4ccccc4Cl)oc3c2)CC1 (single isomer, unassigned) [24 (Isomer A)] | –
9 | 8.44 | 2210 ng/mL | Cn1cc(-c2nc3ccc(CC(=O)N4C[C@@H](F)C[C@H]4CO[C@H]4CC[C@H](C(=O)O)CC4)c(F)c3o2)c2ccccc21 [Example 98, trans-4-(1-((7-Fluoro-2-(1-methyl-3-indolyl)-6-benzoxazolyl)acetyl)-(4S)-fluoro-(2S)-pyrrolidinylmethoxy)cyclohexanecarboxylic acid] | –
10 | 8.10 | 3070 ng/mL | COC[C@H]1CC[C@@H](CO[C@H]2CC[C@H](C(=O)O)CC2)N1C(=O)Cc1cc(Cl)c(NC(=O)c2nn(C)c3ccccc23)cc1F [Example 166, trans-4-(1-((5-Chloro-2-fluoro-4-((1-methyl-3-indazolylcarbonyl)amino)phenyl)acetyl)-(5R)-methoxymethyl-(2S)-pyrrolidinylmethoxy)cyclohexanecarboxylic acid] | –
11 | 8.70 | 912 ng/mL | Cc1ccc(F)cc1Nc1nc2ccc(CC(=O)N3C[C@@H](F)C[C@H]3CO[C@H]3CC[C@H](C(=O)O)CC3)c(F)c2o1 [Example 44, trans-4-(1-((2-(5-Fluoro-2-methylphenylamino)-7-fluoro-6-benzoxazolyl)acetyl)-(4S)-fluoro-(2S)-pyrrolidinylmethoxy)cyclohexanecarboxylic acid] | –
12 | 8.22 | 1190 ng/mL | Cc1ccc(Cl)cc1Nc1nc2ccc(CC(=O)N3C[C@@H](F)C[C@H]3CO[C@H]3CC[C@H](C(=O)O)CC3)c(F)c2o1 [Example 43, trans-4-(1-((2-(5-Chloro-2-methylphenylamino)-7-fluoro-6-benzoxazolyl)acetyl)-(4S)-fluoro-(2S)-pyrrolidinylmethoxy)cyclohexanecarboxylic acid] | –
13 | 7.68 | 8820 ng/mL | COC[C@@H]1CC[C@@H](CO[C@H]2CC[C@H](C(=O)O)CC2)N1C(=O)Cc1cc(Cl)c(NC(=O)c2cn(C)c3ccccc23)cc1F [Example 141, trans-4-((1-(5-Chloro-2-fluoro-4-((1-methyl-3-indolyl)carbonylamino)phenyl)acetyl)-(5S)-methoxymethyl-(2S)-pyrrolidinylmethoxy)cyclohexanecarboxylic acid] | –
14 | 8.24 | 705 ng/mL | Cc1ccccc1Nc1nc2ccc(CC(=O)N3C[C@@H](Sc4ccccc4)C[C@H]3CO[C@H]3CC[C@H](C(=O)O)CC3)cc2o1 [Example 123] | –
15 | 8.14 | 2800 ng/mL | Cn1cc(C(=O)Nc2ccc(CC(=O)N3C[C@@H](F)C[C@H]3CO[C@H]3CC[C@H](C(=O)O)CC3)cc2F)c2ccccc21 [Example 70, trans-4-(1-(3-Fluoro-4-(1-methyl-3-indolyl)carbonylaminophenylacetyl)-(4S)-fluoro-(2S)-pyrrolidinylmethoxy)cyclohexanecarboxylic acid] | –
16 | 7.82 | 1260 ng/mL | COC[C@H]1C[C@@H](CO[C@H]2CC[C@H](C(=O)O)CC2)N(C(=O)Cc2cc(Cl)c(NC(=O)c3cn(C)c4ccccc34)cc2F)C1 [Example 138, trans-4-(1-(5-Chloro-2-fluoro-4-((1-methyl-1H-3-indolylcarbonyl)amino)phenylacetyl)-(4S)-methoxymethyl-(2S)-pyrrolidinylmethoxy)cyclohexanecarboxylic acid] | –
17 | 8.64 | 3320 ng/mL | O=C(Cc1cc(Cl)c(Nc2nc3ccccc3s2)cc1F)N1C[C@@H](F)C[C@H]1CO[C@H]1CC[C@H](C(=O)O)CC1 [Example 61, trans-4-(1-(4-(2-Benzothiazolyl)amino-5-chloro-2-fluorophenylacetyl)-(4S)-fluoro-(2S)-pyrrolidinylmethoxy)cyclohexanecarboxylic acid] | –
18 | 8.06 | 3590 ng/mL | Cn1cc(C(=O)Nc2cc(F)c(CC(=O)N3CCC[C@H]3CO[C@H]3CC[C@H](C(=O)O)CC3)cc2Cl)c2ccccc21 [Example 130, trans-4-(1-((5-Chloro-2-fluoro-4-(1-methyl-3-indolylcarbonylamino)phenyl)acetyl)-(2S)-pyrrolidinylmethoxy)-1-cyclohexanecarboxylic acid] | –

Row | Compound | pKi [3] | concentration at 15 min [4] | also measured
19 | Cc1ccccc1Nc1nc2ccc(CC(=O)N3C[C@@H](F)C[C@H]3COC3CCC(C(=O)O)CC3)cc2o1 (single isomer, unassigned) [21 (Isomer H)] | 8.60 | – | AUC ([1]; 5 /kg, Dose/kg 5.0): 14900 ng·h/mL; bioavailability ([1]; 5 /kg, Dose/kg 5.0): 52%; clearance ([1]; 5 /kg, Dose/kg 5.0): 3.3 mL/min/kg; AUC [2]: 760 ng·h/mL; bioavailability [2]: 40%; clearance [2]: 17.9 mL/min/kg
